The record followed here is PubChem BioAssay (NCI).

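Interpolation was linear, between the two tested concentrations surrounding the appropriate level; five concentrations were tested over 48 hours in 96-well plates. GI50 = concentration required for 50% inhibition of growth. Definition used: TGI = concentration required for complete inhibition of growth.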

What all share (assay): NCI anticancer screen, dose series, 48 h
The test system of assay [1] is HT29 colon.
The test system of assay [2] is SK-OV-3 ovarian.
The test system of assay [3] is SF-539 CNS.
Assay [4] relates to U251 CNS.
Assay [5] concerns NCI-H460 lung.
The test system of assay [6] is UACC-257 melanoma.
Assay [7] concerns HOP-92 NSCLC.
The test system of assay [8] is NCI/ADR-RES ovarian.
Assay [9] deals with HL-60(TB) leukemia.
The subject of assay [10] is DU-145 prostate.

`NC(N)=N/N=C/c1c(-c2cccs2)nc2n1CCS2`: the GI50 is 17.2 µM in assay [1]; over 100 µM in [2]; 19.2 µM in [3]; 16.6 µM in [4]; 18.7 µM in [5]; 22.3 µM in assay [6]. Moreover, the TGI was 30.9 µM in [1]; over 100 µM in assay [2]; 33.3 µM in [3]; 30.1 µM in [4]; 40.6 µM in assay [5]; 44.8 µM in [6].
On to `OC1CCSc2ccccc21` (stereo not drawn), for which the TGI in assay [1], in [2], in assay [3], in assay [4] and in [5] was over 100 µM throughout.
As for `CCOC(=O)c1cccc(N=Nc2ncc(/C=C/C(=O)OC)[nH]2)c1`, the TGI in [1], in assay [2], in assay [3], in assay [7], in assay [8] and in assay [4] was over 100 µM throughout. Further, the TGI was 34.5 µM in assay [5], 30 µM in [9], 46.4 µM in assay [6] and over 100 µM in assay [10].
For the compound `C#C[C@]1(O)[C@@H](CO)O[C@@H](n2ccc(=O)[nH]c2=O)[C@@H]1O`, the TGI in assay [1] is over 100 µM; in [2] it was over 100 µM; in [3] it was 1.39 µM; in assay [4], over 100 µM; in assay [5] it was over 100 µM; in [9] it was over 100 µM. Further, the TGI in [6] is over 84.5 µM; in assay [10], 0.695 µM.
In the case of `CN(CCN1C(=O)c2cccc3cccc(c23)C1=O)CCN1C(=O)c2cccc3cccc(c23)C1=O`, the TGI in [1] is over 100 µM; in [2], 16.6 µM; in assay [3] it was over 100 µM; in assay [8], over 100 µM; in assay [4], 24.7 µM; in assay [5] it was over 100 µM. Also, the TGI in assay [9], in assay [6] and in assay [10] was over 100 µM each time.
Turning to `c1ccc(C[N+]23C(CC[C@H]2c2ccccc2)CC[C@H]3c2ccccc2)cc1` (stereo partly drawn), the TGI in [1] was over 100 µM; in assay [2], over 100 µM; in assay [7], 52.3 µM; in assay [4], over 100 µM; in assay [9], 57.4 µM; in [6], 90.3 µM. This compound registered a TGI in assay [10] of over 100 µM.
For `CC(CCCCNC(=O)OC(C)(C)C)NC(=O)NC(C)CCCCNC(=O)OC(C)(C)C` (stereo not drawn), the TGI in assay [1], in assay [2], in assay [7], in [8], in assay [4] and in assay [5] was over 100 µM each time. For the same compound, the TGI in [9], in assay [6] and in [10] was over 100 µM in each case.
Turning to `Fc1c(F)c(F)c(CSc2nc3ccccc3[nH]2)c(F)c1F`, the TGI in [1], in assay [2], in assay [3], in assay [7], in [8] and in [4] was over 100 µM in each case. In addition, the TGI in assay [5], in [9], in [6] and in assay [10] was over 100 µM each time.
For `Oc1ccc(Cl)cc1C1=Nn2c(COc3ccc4c(c3)CCCC4)nnc2SC1`, the TGI in assay [2] turned out to be 42.4 µM; in assay [3], 33.4 µM; in [7], 18.1 µM; in assay [8], 41.2 µM; in assay [4] it was 35.3 µM; in assay [5], 30.9 µM. Further, the TGI came to 38.2 µM in [9], 35.6 µM in assay [6] and 40 µM in assay [10].
For the compound `COc1cc2cc[n+](C)c(Cc3ccc(Oc4cc(Cc5c6cc(OC)c(OC)cc6cc[n+]5C)ccc4OC)cc3)c2cc1OC`, the TGI in [1], in assay [2], in [3], in assay [7], in [4] and in assay [5] was over 100 µM throughout. Also, the TGI in assay [9], in assay [6] and in [10] was over 100 µM each time.
With `O=C(NN1CCCCC1)c1cc2cc(CCl)ccc2oc1=O`, the TGI in [1] was 33 µM; in [2], 42.6 µM; in [3], over 100 µM; in assay [7], 22.9 µM; in assay [8], 54.2 µM; in assay [4], 31.6 µM. The TGI in assay [5] was 31.1 µM; in assay [9], 37.7 µM; in [6], 59.1 µM; in [10] it was over 100 µM.
Take `CC(C)(C)COS(=O)OCC(C)(C)C`: the TGI in [1], in assay [2], in [3], in [7], in assay [8] and in assay [4] was over 100 µM each time. For the same compound, the TGI in [5], in assay [9], in assay [6] and in assay [10] was over 100 µM each time.
With `Cc1ccc(S(=O)(=O)Nc2cc(=O)[nH]c3c2CCC3)cc1`, the TGI in [1], in assay [2], in assay [3], in assay [7], in assay [8] and in assay [4] was over 100 µM throughout. For the same compound, the TGI in [5], in assay [9], in assay [6] and in [10] was over 100 µM each time.
Take `CC12OC(C(=O)C13CCC3)C1C(=O)c3c(O)ccc(O)c3C(=O)C12` (stereo not drawn): the GI50 in assay [1] was 0.897 µM; in assay [2] it was 18.6 µM; in [3], 2.99 µM; in [8], 0.69 µM; in [4], 2.47 µM; in assay [5], 7.46 µM. Further, the GI50 in [9] is 0.569 µM; in assay [6] it was 1.53 µM; in assay [10] it was 5.01 µM. Further, the TGI in [1] was over 51.6 µM; in assay [2], 54.3 µM; in assay [3], 15.8 µM; in [8], 2.63 µM; in [4] it was over 22.8 µM; in [5], 29.3 µM. Also, the figures for the TGI in assay [9], in assay [6] and in assay [10] were 2.39 µM, 7.81 µM and 19.5 µM, respectively.
Take `Nc1csc(-c2scc3c2OCCO3)c1N`: the TGI in assay [1] came to 52.6 µM; in assay [3] it was 47.4 µM; in [7], 71.8 µM; in assay [8], 61.7 µM; in [4] it was 29.3 µM; in assay [5], 73.7 µM. For the same compound, the TGI is 50.8 µM in assay [9], 54.2 µM in assay [6] and 53.8 µM in assay [10].
`COc1cc(/C=C2\CC3C4CC[C@H]5C[C@@H](O)CC[C@]5(C)C4CC[C@]3(C)\C2=N\O)cc(OC)c1OC` (stereo partly drawn): the TGI is over 100 µM in [1]; 72.3 µM in [2]; 34.1 µM in [3]; over 100 µM in assay [7]; 48.6 µM in assay [8]; 30.9 µM in assay [4]. Further, the TGI is 82.9 µM in assay [5], 55.8 µM in assay [9], 56.7 µM in [6] and over 100 µM in assay [10].
In the case of `C=C(CN(C)C)C(=O)c1ccccc1Cl`, the TGI in [1] is 34.4 µM; in assay [2] it was over 100 µM; in assay [3], over 54.6 µM; in assay [7], 31.1 µM; in assay [4] it was 98.4 µM; in assay [5], over 100 µM. Also, the TGI in assay [9] is 29.6 µM; in assay [6], 37.5 µM; in assay [10] it was over 100 µM.
Regarding `CN(CCCN1CCCC1)CCCN(C)C(=O)Cc1ccc(Cl)c(Cl)c1`, the TGI is 17.5 µM in assay [1]; over 89.6 µM in [2]; over 53.2 µM in assay [3]; 35.9 µM in [7]; over 100 µM in [8]; 29.7 µM in [4]. Also, the TGI was 33.8 µM in assay [5], 37.1 µM in [9], 7.45 µM in assay [6] and over 100 µM in assay [10].
With `CC(NC(=O)c1ccc(OP(=O)(OCc2ccc([N+](=O)[O-])o2)N(C)CCCCCl)cc1)c1ccc(OCC2CCCCC2)c(C(N)=O)c1` (stereo not drawn), the TGI is 7.85 µM in assay [1]; over 100 µM in [2]; 10.1 µM in assay [3]; 4.75 µM in assay [7]; over 100 µM in assay [8]; over 32.3 µM in assay [4]. Further, the TGI in assay [5] was 14.5 µM; in assay [9] it was 12.3 µM; in [6] it was over 39.8 µM; in assay [10], over 29 µM.
For the compound `CCCC(=O)Nc1cc(/C=C/C(=O)N2CC(CCl)c3c2cc(OC(C)=O)c2[nH]cc(C)c32)n(C)c1` (stereo not drawn), the TGI in assay [1] was over 0.25 µM; in [2] it was 0.0691 µM; in [3], 0.000107 µM; in assay [7], 0.000146 µM; in assay [8], 0.0121 µM; in assay [4], 0.105 µM. Moreover, the TGI in assay [5] stood at 0.000419 µM; in assay [9] it was 0.00101 µM; in assay [10], 0.00453 µM.
`Cc1ccc([N+](=O)[O-])cc1S(=O)(=O)Nc1ccc(C2=NN(C(=O)c3ccccc3)C(c3ccccc3O)C2)cc1` (stereo not drawn): the TGI is 62.5 µM in [1]; 84.5 µM in [2]; 38.4 µM in assay [3]; 26.4 µM in [7]; over 100 µM in assay [8]; 80.1 µM in assay [4]. Also, the TGI in assay [9] is 69.4 µM; in assay [6], 51.8 µM; in assay [10], 41.5 µM.
Turning to `Nc1ccc(Cc2ccc(N)c(C(=O)O)c2)cc1C(=O)O`, the TGI in assay [1], in [2], in [3], in [7], in assay [8] and in [4] was over 100 µM each time. In addition, the TGI in [5], in assay [9] and in [6] was over 100 µM each time.
With `COc1ccc(-n2nc(C(=O)c3ccccc3)c3nn4c(=O)cc(-c5ccccc5)nc4nc32)cc1`, the GI50 in assay [1] was 32.2 µM; in assay [2], 74.2 µM; in [3], 41.8 µM; in [7], 37.4 µM; in assay [8], 34.5 µM; in assay [4] it was 39.2 µM. Moreover, the GI50 in [5] was 32.4 µM; in [9], 29.6 µM; in assay [6], 42.6 µM; in assay [10], 49.2 µM. Further, the TGI in [1], in [2], in assay [3], in [7], in assay [8] and in assay [4] was over 100 µM throughout. Also, the TGI in assay [5], in [9], in assay [6] and in [10] was over 100 µM each time.
For the compound `Cc1c2ccccc2cc2cccc[n+]12`, the TGI was over 100 µM in assay [1]; over 100 µM in assay [3]; over 100 µM in assay [8]; over 100 µM in assay [5]; over 100 µM in assay [9]; 43.3 µM in [6]. Besides, in [10], the TGI was over 100 µM.
As to `CCCCSCCC(N)P(=O)(O)O` (stereo not drawn), the TGI in [1], in assay [2], in assay [7], in assay [8], in [4] and in [5] was over 100 µM each time. Besides, the TGI in assay [9], in assay [6] and in assay [10] was over 100 µM in each case.
In the case of `COc1cc(S(=O)(=O)Nc2ccc(-c3csc(/N=C\c4cccc(Oc5ccccc5)c4)n3)cc2)ccc1Cl`, the TGI in assay [1] is over 100 µM; in [3], over 100 µM; in [7], 58.6 µM; in assay [8], over 100 µM; in assay [9], 57.6 µM; in assay [10] it was 61.7 µM.
`CC(C)C(=O)CC(c1ccc(Br)cc1)N1N=C(C(C)C)CC1c1ccc(Br)cc1` (stereo not drawn): the TGI in [1], in assay [2], in [3], in assay [7], in assay [4] and in assay [5] was over 100 µM in each case.
Consider `CN(CCc1ccccn1)c1ccc2c(c1)Cc1ccccc1-2`, for which the TGI is over 100 µM in assay [1]; 68.6 µM in [2]; 31.9 µM in assay [7]; over 100 µM in assay [8]; 22.6 µM in [4]; over 100 µM in assay [5]. Further, the TGI in assay [9] was 59.3 µM; in assay [6], 92.2 µM; in assay [10], over 100 µM.
